Here are results for 1 molecule from patent US6265423A, “Aromatic polycyclic retinoid-type derivatives, method for preparing same, and use thereof for making pharmaceutical and cosmetic compositions” (priority 1996, dated 2001).

In series [1] the test system is A-427 human pulmonary cancer cells. As to the kind of experiment: MTT test, proliferation of A-427. The conditions noted are these: Homo sapiens, A-427, 72 h, read-out: level of proliferation. (In general: Tetrazolium assays rely on reduction of a dye to a coloured formazan, in cell work by metabolically active cells.)
Series [2] has as its system A549 human pulmonary cancer cells. As to the kind of experiment: MTT test, proliferation of A549. The series is classed as cell-based.
The conditions of series [3]: cited from earlier work.
Series [4] relates to T-47D human mammary cancer cells. As to the kind of experiment: MTT test, proliferation of T-47D. The series is classed as cell-based. Here is the method: (§1) The cells that were cultured came from the ATCC (American Type Culture Collection).
(§2) The cellular lines are kept in culture in a monolayer at 37° C. in closed culture dishes (Nunc. Gibco BRL, Life Technologies, Belgium) containing the minimum essential medium (MEM, Gibco) supplemented with 5% of Foetal Calf Serum, (FCS, Gibco), 0.6 mg/ml of glutamine (Gibco) and a mixture of 200 IU/mi of penicillin (Gibco), 200 μg/ml of streptomycin (Gibco) and 0.1 mg/ml of gentamycin (Gibco). The foetal calf serum is decomplemented for 1 hour at 56° C.
(§3) This test is based on the mitochondrial reduction by living metabolically active cells of the MTT (3-(4,5-dimethylthiazol-2-yl)-2,5-diphenyltetrazolium bromide) of yellowish colour into a blue coloured product, formazan. The quantity of formazan obtained is directly proportional to the number of living cells. After incubation of the cells for 24 hours in microplates with 96 flat bottomed wells, the culture medium is replaced by 100 μl of fresh culture medium containing the drug to be tested.
(§4) The microplates are then incubated for 3 hours at 37° C. and centrifuged for 10 minutes at 400 g (GPR centrifuge, Beckman). The MTT solution is replaced by 100 μl of dimethylsulphoxide (Merck). The microplates are agitated (Vari-Shaker, Dynatech) for 10 minutes.
(§5) In the microplates, the control cells like the treated cells were incubated in a medium without the compounds to be tested for 24 hours. The control cells are incubated in a medium without a drug throughout the whole experiment, while the treated cells are incubated in different media. These media contain the molecule to be tested at various concentrations: 10^-8 M, 10^-6 M and 10^-4 M. All the tests are carried out in 6 duplicates.
(§6) The statistical comparisons are carried out according to the Fisher Test:
(§7) The mean optical density measured for each experimental condition is expressed as a percentage in relation to the laid down control condition being equal to 100%.

The subject of series [5] is ZR-75-1 human mammary cancer cells. As to the kind of experiment: MTT test, proliferation of ZR-75-1. It is filed as cell-based. The method, then:
as §1, §2, §3, §4, §5, §6, §7

The mark [6] stands for this setting: Homo sapiens, A549, 72 h, read-out: level of proliferation.

Molecules are shown by their SMILES.

For `CC1=C(/C=C/C(C)=C/C=C/C(C)=C\C(=O)O)C(C)(C)CCC1` [CB81808, 13-cis retinoic acid, reference compound], the activity at 0.01 µM came out at 100% in series [1]; 77.6% in series [2] (setting [6]); 70.3% in series [4] (Homo sapiens, T47D, T-47D, 10^-8 M, 72 h, control = 100%, read-out: level of proliferation); 41.6% in series [5] (Homo sapiens, ZR-75-1, 10^-8 M, 72 h, control = 100%, read-out: level of proliferation). Also, the activity at 1 µM in series [1] turned out to be 99.6%; in series [2] (setting [6]), 85.9%; in series [4] (Homo sapiens, T47D, T-47D, 10^-6 M, 72 h, control = 100%, read-out: level of proliferation) it was 51.8%; in series [5] (Homo sapiens, ZR-75-1, 10^-6 M, 72 h, control = 100%, read-out: level of proliferation), 55%. The activity at 100 µM in series [1] came out at 6.5%; in series [2] (setting [6]) it was 23.6%; in series [4] (Homo sapiens, T47D, T-47D, 10^-4 M, 72 h, control = 100%, read-out: level of proliferation), 9.94%; in series [5] (Homo sapiens, ZR-75-1, 10^-4 M, 72 h, control = 100%, read-out: level of proliferation), 2.3%. For the same molecule, in series [2] (MTT test), the “effect on cellular increase, A549 (in words)” value was “inhibit the proliferation of the A549 lineage at 10^-6 M and 10^-8 M”. Besides, in series [3], the “adverse effects in chronic treatment (in words)” value was “powerful effect of hypervitaminose, of mucocutaneous toxicity and of teratogenecity”. Moreover, the “effect on cellular increase, T-47D (in words)” value in series [4] (MTT test) was “inhibit the cellular increase of the two mammary lineages at the concentrations tested”. In addition, the “effect on cellular increase, ZR-75-1 (in words)” value in series [5] (MTT test) was “inhibit the cellular increase of the two mammary lineages at the concentrations tested”.
